{"source": "patent US20130143825A1", "about": "“COMPOUNDS FOR USE IN THE TREATMENT OF DISEASES BASED ON THE EXPRESSION OF TOXIC TRANSCRIPTS” (UNIVERSITAT DE VALENCIA, priority 2010, published 2013)", "key": {"[1]": {"test_system": "MBNL1 binding to the CUG repeats", "settings": "in vitro; cited from earlier work"}, "[2]": {"test_system": "103Y-Gal4/+;UAS-CTG(480)/+ flies", "assay": "Lethality phenotype in pupae caused by expression of 480 CTG under 103Y-Gal4 (females born)", "assay_type": "in vivo, Drosophila", "settings": "administered to larvae in the food; compared with p10", "method": "The 120 vials that make up the chemical library were individually assayed on the lethality phenotype in pupae caused by the expression of 480 CTG under the control of 103Y-Gal4 at a concentration of 80 μM. […] Thus, for positions O1, O2, O3, O4, O5 and O6 of the hexapeptide, a total of six, three, six, four, two and seven active amino acids were obtained, respectively (FIG. 2A). In order to perform the deconvolution, 10 of these 28 amino acids were selected, on the basis of their degree of activity in the biological assay (FIG. 2A). Finally, of the possible combinations, 16 sequences were selected to perform the synthesis of the defined hexapeptides (FIG. 2B). The selection of these 16 peptides was based on redundancy criteria between the physical and chemical properties of active amino acids in similar positions.\nAt 250 μM, the activity of the peptide decreased, possibly due to a toxic effect of the peptide at higher concentrations.\nIn order to determine the contribution of each of the p10 residues to their activity on CTG(480), an alanine scanning experiment was performed. These experiments are based on substituting every amino acid of the peptide with alanine and keeping the rest. Alanine is a small amino acid and, in general, not very active; this is why it is used for this type of studies. Since each alanine substitution examines the contribution of an individual amino acid, this experiment makes it possible, on the one hand, to evaluate whether p10 is susceptible to optimisation (in the event that a substitution increases the efficacy of the molecule), or to determine which amino acids are important for its function (in the event that a substitution decreases the activity thereof). The sequence of p10 allows for 5 substitutions; for this reason, 5 new hexapeptides were synthesised which were assayed in relation to the lethality phenotype in 103Y-Gal4; UAS-CTG(480)/+ flies and commercial food."}, "[3]": {"test_system": "FAM-(CUG)23 RNA", "assay": "Fluorescence gel retardation assay with FAM-(CUG)23", "assay_type": "binding", "settings": "peptide 2.5 mM, RNA 60 nM", "text": "The changes on the RNA caused by p10 in the FP assay are small, probably due to the low molecular weight of the molecule (less than 900 Da). For this reason, it was decided to supplement the study with gel retardation experiments. These assays are based on the differences in electrophoretic mobility between stable protein-nucleic acid complexes and their components separately. Since the FAM-(CUG)23 RNA was available, it was decided to prepare a fluorescence gel retardation assay. After determining the optimal quantity of RNA for detection (60 nM; FIG. 21A), the binding between the latter and MblZF was studied. Said binding caused both a decrease in the intensity of the band corresponding to the free RNA in the gel and the appearance of a signal in the interior of the gel wells (bound RNA).\nIn order to determine whether p10 could bind to CUG RNA molecules, it was decided to perform a similar gel retardation experiment between the peptide and FAM-(CUG)23. p10 bound to the RNA, with part of the complex being retained in the well, as described for MblZF. […] This affinity decreased upon decreasing the size of the repeats (FAM-(CUG)4, FIG. 24C). […] This could be due either to a synergic effect between the protein and the peptide or to an additive effect if both should bind to different RNA sites.\nIn order to study the specificity of the binding observed between p10 and the CUG repeats, two experiments were performed. In the first place, the five hexapeptides generated during the alanine scanning were assayed. […] In the second place, we studied the effect of p10 on other RNA and DNA sequences, both double-stranded and single-stranded, fluorescently labelled with carboxyfluorescein (FAM) (FIG. 25C)."}, "[4]": {"test_system": "2-AP-(CUG)23 RNA", "assay": "2-aminopurine fluorescence assay (hairpin opening)", "assay_type": "biochemical", "settings": "for destructuration of CUG23 probe, comparative 2-aminopurine assay: 100 μM", "method": "Measurements of the fluorescence emitted (Y-axis), measured as relative fluorescence units (RFU), by 2-aminopurine in a (CUG)23 RNA (1 μM) in the presence of MblZF (0.1 μM, 1 μM, 2 μM and 5 μM) (A) or p10 (0.1 μM, 1 μM, 2 μM, 5 μM and 100 μM) (B), relative to the fluorescence emitted by the free RNA. p10 caused a 2.9-increase in the fluorescence of 2-AP at 100 μM, which indicates a change towards single-stranded. This effect was not observed when incubating the RNA with DMSO, or with the alanine scanning peptides with sequences: ppyawa and payawe (C).\nIn order to confirm whether said changes cause a loss of the hairpin loop structure, an experiment was performed using an RNA composed of 23 CUG repeats, wherein a guanine had been substituted with its analogue 2-aminopurine (2-AP-(CUG)23). When 2-AP is in a single-stranded environment, it emits fluorescence at 375 nm. […] However, upon increasing the concentration of p10 to 100 μM (RNA:peptide 1:100), the 2AP-(CUG)23 RNA underwent a conformational change, from double-stranded to single-stranded, with a 2.9-fold increase in the fluorescence emission of the molecule (FIG. 28B). In order to confirm the specificity of this effect, the same experiment was performed, incubating the alanine scanning peptides (payawe and ppyawa) with the 2-AP-(CUG)23 RNA at the same concentration as p10 (100 μM).\nAs may be observed in FIG. 29, in this example we use the 2-aminopurine assay in order to assay 4 peptides (p11, p5, p12 and p15) in addition to p10, obtained from the deconvolution of the combinatorial peptide library explained in this invention. […] The concentration used in all cases is 100 μM."}, "[5]": {"test_system": "103Y-Gal4/+;UAS-CTG(480)/+ flies", "assay": "Lethality phenotype in pupae caused by expression of 480 CTG under 103Y-Gal4 (females born)", "assay_type": "in vivo, Drosophila", "settings": "females born vs DMSO control"}, "[6]": {"test_system": "Mhc-Gal4 UAS-CTG(480) flies", "assay": "Endogenous expression of p10-derived peptides in the IFMs", "assay_type": "in vivo, Drosophila", "settings": "Mhc-Gal4 line at 25° C., recently ecloded adults", "method": "(§1) The transgenic flies obtained were crossed with the GMR-Gal4 UAS-CTG(480)/CyO and Mhc-Gal4 UAS-CTG(480)/TM6b recombinant fly lines generated during this invention, which directed the expression of the CTG repeats in the eye and the muscle, respectively. As in the case of the sev-Gal4 UAS-CTG(480)/+ flies, the adult GMR-Gal4 UAS-CTG(480)/UAS-GFP flies presented a strong rough eye phenotype. […] However, the opposite phenomenon occurred at 25° C. and at 29° C. […] Given that changes in temperature affect the expression of the CTG(480) transgenes and peptides p17-p19 in a different manner, since the latter are inserted in different regions of the genome, there may be a relation between the quantity of peptide and of repeats that must be reached, whereafter p10 becomes toxic.\nThis confirms the effect of p10 on CTG(480). Once again, only those lines that carried the p18 and p19 transgenes modified the phenotype."}, "[7]": {"test_system": "GMR-Gal4 UAS-CTG(480) flies", "assay": "Endogenous expression of p10-derived peptides (Gal4/UAS), rough eye phenotype", "assay_type": "in vivo, Drosophila", "text": "Thus, three different transgenes were designed, with SEQ ID NO: 17-19 (p17-p19), which encoded different peptides, all based on sequence SEQ ID NO: 10 corresponding to p10 (FIG. 9), taking into consideration the codon usage bias in Drosophila (i.e. favouring the use of G, and in particular C, in the synonymous sites; Powell & Moriyama, 1997) and adding an initial Methionine, as well as three spacer Glycines, to sequence SEQ ID NO: 10. Moreover, upstream from the […] initiation codon, 21 nucleotides of the 5′UTR end of the act5C gene of Drosophila which included the Kozak sequence were added, in order to enhance the expression of the transgenes.\np17 contained the direct sequence of the peptide of SEQ ID NO: 10. As discussed above, the peptides in the hexapeptide chemical library are composed of D-amino acids. The D-forms (dextrogyre) of amino acids are stereoisomers of the L-forms (levogyres) and only L-amino acids are synthesised in the cells and incorporated into proteins. Consequently, if the arrangement of the lateral chains of p10 is important for the function thereof, the latter would be lost when p17 is synthesised by Drosophila from L-aa. For this reason, it was decided to generate construct p18, wherein the peptide sequence of SEQ ID NO: 10 was inverted, leading to a retro-inverse peptide (Chorev & Goodman, 1995; P. M. Fischer, 2003). At the time when these transgenes were generated, the smallest constructs described in the literature encoded peptides with more than 20 amino acids, which is more than twice the size of peptides p17 and p18 (which have only ten amino acids). For this reason, construct p19 was generated, which combined the constructs of peptides p17 and p18, leading to a peptide with 19 amino acids. The three constructs were microinjected in the precursors of the germinal line of Drosophila embryos, leading to 10 lines of transgenic flies for each transgene.\nas §1"}, "[8]": {"test_system": "CUG60 RNA", "assay": "Circular dichroism of CUG60 RNA", "assay_type": "binding", "settings": "RNA 1 μM, p10 0.1-20 μM, MblZF 1 and 1.5 μM, ppyawa 0.5 and 1 μM, payawe 1 μM", "method": "However, this effect was not reverted when the RNA was incubated jointly with MblZF and p10, regardless of the order of addition (C).\nIn order to study possible changes in the secondary structure of RNA induced by p10, in the first place we performed a circular dichroism (CD) experiment, using an RNA with unlabelled CUG repeats (CUG60). The circular dichroism of nucleic acids is caused by the stacking of the bases that make up the sequence thereof. Consequently, when a molecule binds to RNA, affecting the structure thereof, a change is detected in its CD spectrum. […] When we incubated the RNA with increasing concentrations of the peptide of SEQ ID NO: 10 (0.1 μM, 0.5 μM, 1 μM, 10 μM and 20 μM), a similar effect was observed (FIG. 27B). During the readings, the RNA was kept in the cuvette inside the dichrograph at 10° C. Throughout the 3 hours of each experiment, it was possible for the RNA to have been degraded; this would explain the decrease in the intensity of the signal observed. In order to rule out this possibility, the CD spectrum of CUG60 RNA was measured at times 0 and 3 h, having kept the CUG60 RNA at 10° C. at all times."}}, "note": "Non-standard residues stand in square brackets, D forms with d. No end group written: not given here.", "data": [{"molecule": "NC[C@@H]1O[C@H](O[C@H]2[C@@H](O)[C@H](O[C@@H]3[C@@H](O)[C@H](N)C[C@H](N)[C@H]3O[C@H]3O[C@H](CN)[C@@H](O)[C@H](O)[C@H]3N)O[C@@H]2CO)[C@H](N)[C@@H](O)[C@@H]1O", "note": "[neomycin B]", "values": [{"measurement": "binding of MBNL1 to the CUG repeats", "setting": "[1]", "value": "inhibited the binding of MBNL1"}]}, {"molecule": "CN1C(=Cc2cc[n+](C)c3ccccc23)Sc2ccccc21", "note": "[thiazole orange]", "values": [{"measurement": "binding of MBNL1 to the CUG repeats", "setting": "[1]", "value": "inhibited the binding of MBNL1"}]}, {"molecule": "apyawe", "values": [{"measurement": "activity on lethality phenotype (number of females), alanine scanning", "setting": "[2]", "value": "loss of activity"}, {"measurement": "significant binding to FAM-(CUG)23 RNA", "setting": "[3]", "value": "None"}]}, {"molecule": "p5: defined hexapeptide obtained following deconvolution of the D-amino acid combinatorial library ([dC][dQ][dY][dA][dQ][dE])", "values": [{"measurement": "destructuration of CUG23 probe, comparative 2-aminopurine assay", "setting": "[4]", "value": "significant levels of specificity and efficacy"}, {"measurement": "Treated born/Control born", "setting": "[5]; 25 μM", "value": 2.0}]}, {"molecule": "p15: defined hexapeptide obtained following deconvolution of the D-amino acid combinatorial library ([dP][dQ][dY][dT][dQ][dE])", "values": [{"measurement": "destructuration of CUG23 probe, comparative 2-aminopurine assay", "setting": "[4]", "value": "significant levels of specificity and efficacy"}, {"measurement": "Treated born/Control born", "setting": "[5]; 40 μM", "value": 0.5}]}, {"molecule": "p18: endogenously expressed ten amino acid peptide with the sequence of p10 inverted (retro-inverse) (MGGGEWAYPP; not fully specified)", "values": [{"measurement": "histological defects of the IFMs on co-expression with CTG(480)", "setting": "[6]", "value": "suppressed the histological defects of the IFMs"}, {"measurement": "rough eye phenotype on co-expression with CTG(480)", "setting": "[7]; 19° C. and 21° C.", "value": "visibly less rough"}, {"measurement": "eye phenotype on co-expression with CTG(480)", "setting": "[7]; 25° C.", "value": "enhanced the toxicity of the CTG repeats"}, {"measurement": "phenotype of expression of peptide by itself", "setting": "[7]; 25° C. and 29° C., without CTG(480)", "value": "did not cause any phenotype"}, {"measurement": "offspring of crossing with GMR-Gal4 UAS-CTG(480)/CyO", "setting": "[7]; 29° C.", "value": "did not produce offspring without the CyO balancer"}, {"measurement": "transgenic lines assayed that modified the phenotype of GMR-Gal4 UAS-CTG(480) flies", "setting": "[7]; in vivo", "value": "all the lines"}]}, {"molecule": "payawe", "values": [{"measurement": "increase in the fluorescence emission of 2-AP-(CUG)23", "setting": "[4]; peptide 100 μM, RNA 1 μM (1:100)", "value": "None of these peptides caused changes"}, {"measurement": "change of circular dichroism spectrum of CUG60", "setting": "[8]", "value": "did not occur"}, {"measurement": "change of circular dichroism spectrum of CUG60", "setting": "[8]; listed as p29.4", "value": "did not change the RNA spectrum"}, {"measurement": "activity on lethality phenotype (number of females), alanine scanning", "setting": "[2]", "value": "loss of activity"}, {"measurement": "significant binding to FAM-(CUG)23 RNA", "setting": "[3]", "value": "None"}]}, {"molecule": "ppaawe", "values": [{"measurement": "activity on lethality phenotype (number of females), alanine scanning", "setting": "[2]", "value": "loss of activity"}, {"measurement": "significant binding to FAM-(CUG)23 RNA", "setting": "[3]", "value": "None"}]}, {"molecule": "ppyaae", "values": [{"measurement": "activity on lethality phenotype (number of females), alanine scanning", "setting": "[2]", "value": "loss of activity"}, {"measurement": "significant binding to FAM-(CUG)23 RNA", "setting": "[3]", "value": "None"}]}]}
